Results from US10131652B2, “Pyrimidinyloxy benzene derivatives as herbicides” (E. I. DU PONT DE NEMOURS AND COMPANY, priority 2014, dated 2018).
Where two headings read alike, the source gives them in different places.

Key:
Assay in all cases: Test E pre-/postemergence plant response
Format in all cases: in vivo
[1] = test system: chamomile (scentless chamomile, Matricaria inodora); settings: Tripleurospermum inodorum, post-emergence, Postemergence, scale 0 to 100, read-out: Plant response rating, Chamomile
Summary of the method: (§1)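 Visual scores on a 0–100 scale (100 = complete control) were assigned against untreated controls 7–21 days after treatment in a controlled environment. Compounds, formulated with solvent plus surfactant, were applied to pre-emergence silt-loam sowings or to 1- to 4-leaf plants (2–18 cm) in potting medium.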

[2] = test system: deadnettle (henbit deadnettle, Lamium amplexicaule); settings: scale 0 to 100, read-out: Plant response rating, Deadnettle; for pest or weed control at 16 g/ha: 16 g ai/ha; for pest or weed control at 31 g/ha: 31 g ai/ha; for pest or weed control at 62 g/ha: 62 g ai/ha; for pest or weed control at 125 g/ha: 125 g ai/ha
Summary of the method: as §1

[3] = test system: downy bromegrass (Bromus tectorum); settings: scale 0 to 100, read-out: Plant response rating, Bromegrass, Downy; for pest or weed control at 16 g/ha: 16 g ai/ha; for pest or weed control at 31 g/ha: 31 g ai/ha; for pest or weed control at 62 g/ha: 62 g ai/ha; for pest or weed control at 125 g/ha: 125 g ai/ha
Summary of the method: as §1

[4] = test system: field poppy (Papaver rhoeas); settings: scale 0 to 100, read-out: Plant response rating, Field Poppy; for pest or weed control at 16 g/ha: 16 g ai/ha; for pest or weed control at 31 g/ha: 31 g ai/ha; for pest or weed control at 62 g/ha: 62 g ai/ha; for pest or weed control at 125 g/ha: 125 g ai/ha
Summary of the method: as §1

kochia (Kochia scoparia) = settings: Bassia scoparia, scale 0 to 100, read-out: Plant response rating, Kochia; for pest or weed control at 16 g/ha: 16 g ai/ha; for pest or weed control at 31 g/ha: 31 g ai/ha; for pest or weed control at 62 g/ha: 62 g ai/ha; for pest or weed control at 125 g/ha: 125 g ai/ha
Summary of the method: as §1

[5] = test system: speedwell (bird's-eye speedwell, Veronica persica); settings: scale 0 to 100, read-out: Plant response rating, Speedwell; for pest or weed control at 16 g/ha: 16 g ai/ha; for pest or weed control at 62 g/ha: 62 g ai/ha; for pest or weed control at 125 g/ha: 125 g ai/ha
Summary of the method: as §1

[6] = test system: wild buckwheat (Polygonum convolvulus); settings: Fallopia convolvulus, scale 0 to 100, read-out: Plant response rating, Buckwheat, Wild; for pest or weed control at 16 g/ha: 16 g ai/ha; for pest or weed control at 31 g/ha: 31 g ai/ha; for pest or weed control at 62 g/ha: 62 g ai/ha; for pest or weed control at 125 g/ha: 125 g ai/ha
Summary of the method: as §1

[7] = test system: wild mustard (Sinapis arvensis); settings: Brassica, scale 0 to 100, read-out: Plant response rating, Mustard, Wild; for pest or weed control at 16 g/ha: 16 g ai/ha; for pest or weed control at 31 g/ha: 31 g ai/ha; for pest or weed control at 62 g/ha: 62 g ai/ha; for pest or weed control at 125 g/ha: 125 g ai/ha
Summary of the method: as §1

wild oat (Avena fatua) = settings: scale 0 to 100, read-out: Plant response rating, Oat, Wild; for pest or weed control at 16 g/ha: 16 g ai/ha; for pest or weed control at 31 g/ha: 31 g ai/ha; for pest or weed control at 62 g/ha: 62 g ai/ha; for pest or weed control at 125 g/ha: 125 g ai/ha
Summary of the method: as §1

[8] = test system: wild radish (Raphanus raphanistrum); settings: scale 0 to 100, read-out: Plant response rating, Radish, Wild; for pest or weed control at 16 g/ha: 16 g ai/ha; for pest or weed control at 31 g/ha: 31 g ai/ha; for pest or weed control at 62 g/ha: 62 g ai/ha; for pest or weed control at 125 g/ha: 125 g ai/ha
Summary of the method: as §1

[9] = test system: windgrass (Apera spica-venti); settings: scale 0 to 100, read-out: Plant response rating, Windgrass; for pest or weed control at 16 g/ha: 16 g ai/ha; for pest or weed control at 62 g/ha: 62 g ai/ha; for pest or weed control at 125 g/ha: 125 g ai/ha
Summary of the method: as §1

[10] = post-emergence, 31 g ai/ha, Postemergence

Fc1cccc(Oc2ncc(Cl)cn2)c1-c1cc(C(F)(F)F)on1 [Compound 168, 5-chloro-2-[2-[5-(trifluoromethyl)-3-isoxazolyl]-3-fluorophenoxy]pyrimidine]
pest or weed control at 16 g/ha ([1]; 16 g ai/ha): 5% | pest or weed control at 31 g/ha ([1]; 31 g ai/ha): 5% | pest or weed control at 62 g/ha ([1]; 62 g ai/ha): 10% | pest or weed control at 125 g/ha ([1]; 125 g ai/ha): 10% | pest or weed control at 16 g/ha ([2]; post-emergence, Postemergence): 20% | pest or weed control at 31 g/ha ([2]; post-emergence, Postemergence): 55% | pest or weed control at 62 g/ha ([2]; post-emergence, Postemergence): 75% | pest or weed control at 125 g/ha ([2]; post-emergence, Postemergence): 80% | pest or weed control at 16 g/ha ([2]; pre-emergence, Preemergence): 10% | pest or weed control at 31 g/ha ([2]; pre-emergence, Preemergence): 50% | pest or weed control at 62 g/ha ([2]; pre-emergence, Preemergence): 80% | pest or weed control at 125 g/ha ([2]; pre-emergence, Preemergence): 100% | pest or weed control at 16 g/ha ([3]; post-emergence, Postemergence): 5% | pest or weed control at 31 g/ha ([3]; post-emergence, Postemergence): 15% | pest or weed control at 62 g/ha ([3]; post-emergence, Postemergence): 25% | pest or weed control at 125 g/ha ([3]; post-emergence, Postemergence): 35% | pest or weed control at 16 g/ha ([3]; pre-emergence, Preemergence): 0% | pest or weed control at 31 g/ha ([3]; pre-emergence, Preemergence): 10% | pest or weed control at 62 g/ha ([3]; pre-emergence, Preemergence): 10% | pest or weed control at 125 g/ha ([3]; pre-emergence, Preemergence): 40% | pest or weed control at 16 g/ha ([4]; post-emergence, Postemergence): 55% | pest or weed control at 31 g/ha ([4]; post-emergence, Postemergence): 85% | pest or weed control at 62 g/ha ([4]; post-emergence, Postemergence): 100% | pest or weed control at 125 g/ha ([4]; post-emergence, Postemergence): 100% | pest or weed control at 16 g/ha ([4]; pre-emergence, Preemergence): 80% | pest or weed control at 31 g/ha ([4]; pre-emergence, Preemergence): 100% | pest or weed control at 62 g/ha ([4]; pre-emergence, Preemergence): 100% | pest or weed control at 125 g/ha ([4]; pre-emergence, Preemergence): 100% | pest or weed control at 16 g/ha (kochia (Kochia scoparia); post-emergence, Postemergence): 80% | pest or weed control at 31 g/ha (kochia (Kochia scoparia); post-emergence, Postemergence): 80% | pest or weed control at 62 g/ha (kochia (Kochia scoparia); post-emergence, Postemergence): 85% | pest or weed control at 125 g/ha (kochia (Kochia scoparia); post-emergence, Postemergence): 85% | pest or weed control at 16 g/ha (kochia (Kochia scoparia); pre-emergence, Preemergence): 35% | pest or weed control at 31 g/ha (kochia (Kochia scoparia); pre-emergence, Preemergence): 100% | pest or weed control at 62 g/ha (kochia (Kochia scoparia); pre-emergence, Preemergence): 100% | pest or weed control at 125 g/ha (kochia (Kochia scoparia); pre-emergence, Preemergence): 100% | pest or weed control at 16 g/ha ([5]; post-emergence, Postemergence): 80% | pest or weed control at 31 g/ha [5, 10]: 75% | pest or weed control at 62 g/ha ([5]; post-emergence, Postemergence): 90% | pest or weed control at 125 g/ha ([5]; post-emergence, Postemergence): 100% | pest or weed control at 16 g/ha ([5]; pre-emergence, Preemergence): 100% | pest or weed control at 62 g/ha ([5]; pre-emergence, Preemergence): 100% | pest or weed control at 125 g/ha ([5]; pre-emergence, Preemergence): 100% | pest or weed control at 16 g/ha ([6]; post-emergence, Postemergence): 65% | pest or weed control at 31 g/ha ([6]; post-emergence, Postemergence): 95% | pest or weed control at 62 g/ha ([6]; post-emergence, Postemergence): 95% | pest or weed control at 125 g/ha ([6]; post-emergence, Postemergence): 100% | pest or weed control at 16 g/ha ([6]; pre-emergence, Preemergence): 0% | pest or weed control at 31 g/ha ([6]; pre-emergence, Preemergence): 65% | pest or weed control at 62 g/ha ([6]; pre-emergence, Preemergence): 100% | pest or weed control at 125 g/ha ([6]; pre-emergence, Preemergence): 100% | pest or weed control at 16 g/ha ([7]; post-emergence, Postemergence): 75% | pest or weed control at 31 g/ha ([7]; post-emergence, Postemergence): 95% | pest or weed control at 62 g/ha ([7]; post-emergence, Postemergence): 95% | pest or weed control at 125 g/ha ([7]; post-emergence, Postemergence): 95% | pest or weed control at 16 g/ha ([7]; pre-emergence, Preemergence): 80% | pest or weed control at 31 g/ha ([7]; pre-emergence, Preemergence): 80% | pest or weed control at 62 g/ha ([7]; pre-emergence, Preemergence): 95% | pest or weed control at 125 g/ha ([7]; pre-emergence, Preemergence): 100% | pest or weed control at 16 g/ha (wild oat (Avena fatua); post-emergence, Postemergence): 5% | pest or weed control at 31 g/ha (wild oat (Avena fatua); post-emergence, Postemergence): 10% | pest or weed control at 62 g/ha (wild oat (Avena fatua); post-emergence, Postemergence): 40% | pest or weed control at 125 g/ha (wild oat (Avena fatua); post-emergence, Postemergence): 65% | pest or weed control at 16 g/ha (wild oat (Avena fatua); pre-emergence, Preemergence): 10% | pest or weed control at 31 g/ha (wild oat (Avena fatua); pre-emergence, Preemergence): 10% | pest or weed control at 62 g/ha (wild oat (Avena fatua); pre-emergence, Preemergence): 35% | pest or weed control at 125 g/ha (wild oat (Avena fatua); pre-emergence, Preemergence): 50% | pest or weed control at 16 g/ha ([8]; post-emergence, Postemergence): 70% | pest or weed control at 31 g/ha ([8]; post-emergence, Postemergence): 75% | pest or weed control at 62 g/ha ([8]; post-emergence, Postemergence): 80% | pest or weed control at 125 g/ha ([8]; post-emergence, Postemergence): 85% | pest or weed control at 16 g/ha ([8]; pre-emergence, Preemergence): 0% | pest or weed control at 31 g/ha ([8]; pre-emergence, Preemergence): 45% | pest or weed control at 62 g/ha ([8]; pre-emergence, Preemergence): 100% | pest or weed control at 125 g/ha ([8]; pre-emergence, Preemergence): 100% | pest or weed control at 16 g/ha ([9]; post-emergence, Postemergence): 10% | pest or weed control at 31 g/ha [9, 10]: 15% | pest or weed control at 62 g/ha ([9]; post-emergence, Postemergence): 25% | pest or weed control at 125 g/ha ([9]; post-emergence, Postemergence): 40% | pest or weed control at 16 g/ha ([9]; pre-emergence, Preemergence): 0% | pest or weed control at 62 g/ha ([9]; pre-emergence, Preemergence): 100% | pest or weed control at 125 g/ha ([9]; pre-emergence, Preemergence): 100%
